Structures are written as SMILES.

Set-up in all cases: key: 0: normal development; 1: Less damaged; 2: Slightly damaged; 3: Moderately damaged; 4: Severely damaged; 5: All killed
Assay [1] concerns young rice plant. Description: Herbicidal test for paddy field. As to conditions: paddy field pot, 500 g/ha dropwise at 1.5 leaf stage of barnyardgrass, 3 weeks, rank vs non-treated. Type of assay: in vivo. In a few lines:
(§1)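 Scores run on a six-point scale from 0 for normal development to 5 for all plants killed, judged against non-treated pots. Plants were grown in Ube soil under 3 cm of standing water and treated by pipet with 500 g/ha of the compound once barnyardgrass had 1.5 leaves. Assessment followed 3 weeks in a glasshouse averaging 25° C.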

Assay [2] relates to barnyardgrass. As to the kind of experiment: Herbicidal test for paddy field. It is filed as in vivo, Echinochloa crusgalli. As to conditions: paddy field pot, 500 g/ha dropwise at 1.5 leaf stage of barnyardgrass, 3 weeks, rank vs non-treated. The essentials:
as §1

Assay [3] relates to bulrush. As to the kind of experiment: Herbicidal test for paddy field. Type of assay: in vivo, Scrips juncoides. As to conditions: paddy field pot, 500 g/ha dropwise at 1.5 leaf stage of barnyardgrass, 3 weeks, rank vs non-treated. In a few lines:
as §1

Assay [4] has as its system flat sedge. As to the kind of experiment: Herbicidal test for paddy field. Type of assay: in vivo, Cyperus serotinus. As to conditions: paddy field pot, 500 g/ha dropwise at 1.5 leaf stage of barnyardgrass, 3 weeks, rank vs non-treated. The protocol: Wagner pots, each having an area of 1/5000 are, were packed with Ube soil (alluvial soil) and planted with seeds or tubers of young rice plant, barnyardgrass, bulrush, flat sedge and monochoria. Then, the pots were filled with water to a depth of 3 cm.
Each wettable powder of the desired compounds (I) shown in Table 1 prepared in accordance with Example 2 was diluted with water containing a surfactant (0.05%) and subjected to dropwise addition treatment by using pipet so that an effective concentration of the compound (I) in each herbicide became 500 g/ha at 1.5 leaf stage of barnyardgrass.
These plants were controlled in a glass house at an average temperature of 25° C. for 3 weeks, and then herbicidal effects thereof were investigated.
The herbicidal effects are evaluated according to the following 6 ranks as compared with non-treated district.
(0: normal development, 1: Less damaged, 2: Slightly damaged, 3: Moderately damaged, 4: Severely damaged, 5: All killed).

The subject of assay [5] is monochoria. As to the kind of experiment: Herbicidal test for paddy field. As to conditions: paddy field pot, 500 g/ha dropwise at 1.5 leaf stage of barnyardgrass, 3 weeks, rank vs non-treated. It is filed as in vivo, Monochoria vaginalis. In a few lines:
as §1

For assay [6], the system named is corn. Description: Foliar spread test for upland field. It is filed as in vivo. As to conditions: foliar spray 500 ppm, 3 weeks, rank vs non-treated. The essentials: (§2)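 Two-week-old glasshouse seedlings on volcanic ash soil were treated by foliar spray at 500 ppm, with 0.5% surfactant in the diluent. Effects were graded visually after three weeks, from 0 for no injury to 5 for complete kill.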

For assay [7], the system named is cotton. Description: Foliar spread test for upland field. It is filed as in vivo. As to conditions: foliar spray 500 ppm, 3 weeks, rank vs non-treated. The essentials:
as §2

Assay [8] relates to solgum. As to the kind of experiment: Foliar spread test for upland field. It is filed as in vivo. As to conditions: foliar spray 500 ppm, 3 weeks, rank vs non-treated. In a few lines: as §2
Assay [9] relates to soybean. As to the kind of experiment: Foliar spread test for upland field. As to conditions: foliar spray 500 ppm, 3 weeks, rank vs non-treated. It is filed as in vivo. The essentials: as §2
Assay [10] relates to sugar beat. Description: Foliar spread test for upland field. It is filed as in vivo. As to conditions: foliar spray 500 ppm, 3 weeks, rank vs non-treated. In a few lines: as §2
Assay [11] deals with wheat. As to the kind of experiment: Foliar spread test for upland field. As to conditions: foliar spray 500 ppm, 3 weeks, rank vs non-treated. It is filed as in vivo. The essentials: as §2
The subject of assay [12] is Large crabgrass. Description: Foliar spread test for upland field. Type of assay: in vivo, Digitaria adscendens. As to conditions: foliar spray 500 ppm, 3 weeks, rank vs non-treated. The essentials: (§3)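 Scoring used a 0–5 scale, where 0 meant normal development and 5 meant all plants killed, assessed 3 weeks after treatment. Plants had been grown about 2 weeks from seed in volcanic ash soil before a uniform spray at 500 ppm containing 0.5% surfactant.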

The subject of assay [13] is barnyardgrass. As to the kind of experiment: Foliar spread test for upland field. As to conditions: foliar spray 500 ppm, 3 weeks, rank vs non-treated. Type of assay: in vivo, Echinochloa crusgalli. The essentials: as §3
For assay [14], the system named is green foxtail. Description: Foliar spread test for upland field. It is filed as in vivo, Setaria viridis. As to conditions: foliar spray 500 ppm, 3 weeks, rank vs non-treated. In a few lines:
as §3

The subject of assay [15] is blackgrass. Description: Foliar spread test for upland field. Type of assay: in vivo, Alopecurus aegualis. As to conditions: foliar spray 500 ppm, 3 weeks, rank vs non-treated. In a few lines:
as §3

Assay [16] has as its system annual bluegrass. Description: Foliar spread test for upland field. It is filed as in vivo, Poa annua. As to conditions: foliar spray 500 ppm, 3 weeks, rank vs non-treated. In a few lines:
as §3

The subject of assay [17] is common lambsquartes. As to the kind of experiment: Foliar spread test for upland field. Type of assay: in vivo, Chenopodium album. As to conditions: foliar spray 500 ppm, 3 weeks, rank vs non-treated. The essentials:
as §3

Assay [18] deals with livid amaranth. As to the kind of experiment: Foliar spread test for upland field. As to conditions: foliar spray 500 ppm, 3 weeks, rank vs non-treated. It is filed as in vivo, Amaranthus lividus. In a few lines: as §3
For assay [19], the system named is velvetleaf. As to the kind of experiment: Foliar spread test for upland field. Type of assay: in vivo, Abutilon theophrasti. As to conditions: foliar spray 500 ppm, 3 weeks, rank vs non-treated. In a few lines:
as §3

The test system of assay [20] is morning glory. As to the kind of experiment: Foliar spread test for upland field. Type of assay: in vivo, Ipomoea spps. As to conditions: foliar spray 500 ppm, 3 weeks, rank vs non-treated. In a few lines:
as §3

Take `CCCC(Oc1cccc(C#N)c1)c1nc2cc(Cl)ccc2o1` (centres unmarked) [Compound 457]: the “Effect Young rice plant” value in assay [1] is on record as 1. The “Effect Barnyardgrass” value in [2] is recorded as 4. The “Effect Bulrush” value in assay [3] turned out to be 4. Besides, in [4], the “Effect Flat sedge” value is reported as 4. The “Effect Monochoria” value in assay [5] is 4. In addition, the “Effects Corn” value in assay [6] turned out to be 1. In addition, in [7], the “Effects Cotton” value amounted to 3. In addition, in assay [8], the “Effects Solgum” value is given as 2. Also, the “Effects Soybean” value in [9] was determined as 3. Also, the “Effects Sugar beat” value in assay [10] was determined as 3. The “Effects Wheat” value in assay [11] is listed as 2. Further, the “Effects Large crabgrass” value in [12] is recorded as 2. The “Effects Barnyardgrass” value in assay [13] is on record as 2. The “Effects Green foxtail” value in assay [14] was 3. In assay [15], the “Effects Blackgrass” value worked out at 2. Moreover, in assay [16], the “Effects Annual bluegrass” value is 2. The “Effects Common lambsquarters” value in assay [17] stood at 3. In addition, the “Effects Livid amaranth” value in [18] is on record as 4. The “Effects Velvetleaf” value in assay [19] came out at 3. For the same compound, the “Effects Morning glory” value in assay [20] is recorded as 3.

For the origin of these results see patent US6706664B1, “Benzoxazole compounds, process for the preparation thereof and herbicides” (UBE Industries, Ltd., priority 1999, dated 2004).
